Assay [1] has as its system C. albicans. The assay is described as follows: Chimeric double peptide-pulsed DC vaccination versus single peptides and mixture, lethal Candida challenge in mice (survival, kidney CFUs). The settings on record: for kidney CFUs: compared to non-immune mice / other vaccines.
Description: Different groups of dendritic cells (DCs) were pulsed in vitro with Fba peptide, Met6 peptide, Fba-Met6 chimeric double peptide, or a mixture of the two peptides Fba and Met6. Briefly, DCs in culture were pulsed with the peptide antigen (1 μM) on day 6. On day 7, PGE2 (10^−7 M) was added along with LPS (2 μg/ml, Sigma) for 24 h. On day 9, antigen-pulsed DCs were washed extensively and 5×10^5 cells in 200 μl DPBS were injected into mice i.p. with complete Freund's adjuvant as the priming dose. The mice were boosted i.p. at day 14 with fresh antigen-pulsed DCs and adjuvant. The mice were again boosted i.p. at day 28 with fresh antigen-pulsed DCs, but the final boost used no adjuvant.
Two weeks after the second boost, immunized and control mice were both infected i.v. with a lethal dose of live C. albicans yeast cells (5×10^5 in 0.1 ml of DPBS), prepared as described above. Passively immunized mice (see below) also received the same challenge dose. Protection was evaluated by monitoring animal survival for 50-60 days. The mice were monitored for the development of a moribund state: defined as being listless, disinterested in food or water, and nonreactive to finger probing. Once a mouse was deemed moribund, it was sacrificed and its kidneys were homogenized in DPBS and plated onto a nutrient agar to determine the number of colony forming units of yeast (CFUs).
The subject of assay [2] is Met6-8MAP. Put plainly: Serum antibody ELISA after immunization, plates coated with Met6-8MAP. The format is in vivo. To be noted: after first booster; serum diluted 1:200; alum adjuvant; OD 492 nm. As for the experimental part:
Sera antibody titers were analyzed by ELISA. For DC-based immunization, the control groups were mice given DCs alone, or given DPBS alone, for all three injections. […] Fbb-8MAP or Met6-8MAP was dissolved at 5 μg/ml in PBS (pH 7.4), and used to coat 96-well ELISA plates with duplicate, serial, 2-fold dilutions of samples of each immune serum and control serum. Each well was treated with secondary antibody (goat anti-mouse polyvalent Ig-HRP, Sigma) and substrate (o-phenylenediamine and H2O2). Optical density was measured at 492 nm.
Serum samples were collected 14 days after immunization, diluted 1:200, and tested by ELISA on plates coated with the applicable peptide-8MAP conjugate. […] However, the immune responses to the MAP conjugates were substantially weaker than those induced by peptide-pulsed DC immunization.
Background: In an ELISA, binding on a coated surface is turned into a signal by an enzyme label.

As for “YGKDVKDLFDYAQEKKPRIGGQRELKKITE [Fba-KK-Met6]”, the “kidney CFUs” value in assay [1] (listed as Fba-Met6 chimeric double peptide vaccine) is “only one mouse in that group exhibited any detectable kidney CFUs”; in assay [1] (listed as Fba-Met6 conjugate) it was “much lower CFUs in kidneys”. Moreover, the “survival rate / protection” value in assay [1] (up to 60 days (end of experiment)) is given as 100%.

“PRIGGQRELKKITE (Met6 peptide) [14-mer peptide from C. albicans cell wall protein Met6]”: in assay [2], the “antibody response compared to negative control mice (DPBS or adjuvant only)” value is recorded as 4-5 fold.

The record behind these values is patent publication US10590178B2 (priority 2014, dated 2020).
